Measured values as given in ChEMBL document CHEMBL1201862, “PubChem BioAssay data set” (2004).
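How tested: cells in 96-well plates exposed to compound for 48 hours at five concentrations. GI50 marks 50% less growth.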 The source made the active and inactive calls. Rule as the data show it: active = GI50 up to about 1.1 µM and inactive = higher.

Assays:
Assay in all cases: growth of human tumour cells (NCI), 48 h
A549 = test system: A549
ACHN = test system: ACHN
CAKI-1 = test system: CAKI-1
EKVX = test system: EKVX
Malme-3M = test system: Malme-3M
NCI-H460 = test system: NCI-H460
SF-268 = test system: SF-268
SF-295 = test system: SF-295
SF-539 = test system: SF-539
SK-MEL-5 = test system: SK-MEL-5
SNB-78 = test system: SNB-78
SW-620 = test system: SW-620
U-251 = test system: U-251
UACC-257 = test system: UACC-257
HCT-116 = test system: HCT-116
MCF7 = test system: MCF7
MDA-N = test system: MDA-N
NCI/ADR-RES = test system: NCI/ADR-RES
SR = test system: SR
T47D = test system: T47D

N=C(N)NS(=O)(=O)c1ccc(NC(=O)c2ccc(Cl)c3c(Nc4ccc(S(=O)(=O)N=C(N)N)cc4)c4ccccc4nc23)cc1
GI50 (A549): > 100 µM (inactive)
GI50 (ACHN): 95.5 µM (inactive)
GI50 (CAKI-1): 45.4 µM (inactive)
GI50 (EKVX): 56.8 µM (inactive)
GI50 (Malme-3M): > 100 µM (inactive)
GI50 (NCI-H460): > 100 µM (inactive)
GI50 (SF-268): > 100 µM (inactive)
GI50 (SF-295): > 100 µM (inactive)
GI50 (SF-539): 53.7 µM (inactive)
GI50 (SK-MEL-5): > 10 µM (inactive)
GI50 (SNB-78): 45 µM (inactive)
GI50 (SW-620): 56.2 µM (inactive)
GI50 (U-251): 76.7 µM (inactive)
GI50 (UACC-257): 84.5 µM (inactive)

c1ccc(CNn2nnc3ccccc32)cc1
GI50 (A549): > 100 µM (inactive)
GI50 (ACHN): > 100 µM (inactive)
GI50 (CAKI-1): > 100 µM (inactive)
GI50 (EKVX): > 100 µM (inactive)
GI50 (Malme-3M): > 100 µM (inactive)
GI50 (NCI-H460): > 100 µM (inactive)
GI50 (SF-268): > 100 µM (inactive)
GI50 (SF-295): > 100 µM (inactive)
GI50 (SK-MEL-5): > 100 µM (inactive)
GI50 (SNB-78): > 100 µM (inactive)
GI50 (SW-620): > 100 µM (inactive)
GI50 (UACC-257): > 100 µM (inactive)

O=C(O)c1ccc(C2C3C=CC(C3)C2[N+](=O)[O-])cc1 (stereo not drawn)
GI50 (A549): > 100 µM (inactive)
GI50 (CAKI-1): > 100 µM (inactive)
GI50 (EKVX): > 100 µM (inactive)
GI50 (Malme-3M): > 100 µM (inactive)
GI50 (NCI-H460): > 100 µM (inactive)
GI50 (SF-268): > 100 µM (inactive)
GI50 (SF-295): > 100 µM (inactive)
GI50 (SF-539): > 100 µM (inactive)
GI50 (SK-MEL-5): > 100 µM (inactive)
GI50 (SNB-78): > 100 µM (inactive)
GI50 (SW-620): > 100 µM (inactive)
GI50 (U-251): > 100 µM (inactive)
GI50 (UACC-257): > 100 µM (inactive)

N#CCc1nc(-c2cc3ccc(O)cc3oc2=O)cs1
GI50 (A549): 55 µM (inactive)
GI50 (ACHN): 57.9 µM (inactive)
GI50 (CAKI-1): > 100 µM (inactive)
GI50 (EKVX): 63 µM (inactive)
GI50 (HCT-116): 53.1 µM (inactive)
GI50 (MCF7): 47.6 µM (inactive)
GI50 (MDA-N): 48.9 µM (inactive)
GI50 (Malme-3M): > 100 µM (inactive)
GI50 (NCI-H460): 50 µM (inactive)
GI50 (NCI/ADR-RES): > 100 µM (inactive)
GI50 (SF-268): 83.2 µM (inactive)
GI50 (SF-295): 33.2 µM (inactive)
GI50 (SF-539): 69.3 µM (inactive)
GI50 (SK-MEL-5): 38.7 µM (inactive)
GI50 (SR): 29.4 µM (inactive)
GI50 (SW-620): 39.6 µM (inactive)
GI50 (T47D): 36.7 µM (inactive)
GI50 (U-251): 45.8 µM (inactive)
GI50 (UACC-257): 41.7 µM (inactive)

CC(C)(CN1CCCCC1)C(=O)CC(SCCN)c1ccc(Cl)cc1 (stereo not drawn)
GI50 (A549): 2.88 µM (inactive)
GI50 (ACHN): 2.78 µM (inactive)
GI50 (CAKI-1): 1.71 µM (inactive)
GI50 (EKVX): 1.74 µM (inactive)
GI50 (HCT-116): 2.37 µM (inactive)
GI50 (Malme-3M): 3.1 µM (inactive)
GI50 (NCI-H460): 2.11 µM (inactive)
GI50 (SF-268): 2.78 µM (inactive)
GI50 (SF-295): 3.22 µM (inactive)
GI50 (SF-539): 1.66 µM (inactive)
GI50 (SK-MEL-5): 1.73 µM (inactive)
GI50 (SNB-78): 2.56 µM (inactive)
GI50 (SW-620): 1.76 µM (inactive)
GI50 (U-251): 3.12 µM (inactive)
GI50 (UACC-257): 2.09 µM (inactive)

O=Cc1ccccc1COC(=O)c1cc(C(=O)OCc2ccccc2C=O)c(C(=O)OCc2ccccc2C=O)cc1C(=O)OCc1ccccc1C=O
GI50 (A549): > 100 µM (inactive)
GI50 (ACHN): > 100 µM (inactive)
GI50 (CAKI-1): > 100 µM (inactive)
GI50 (EKVX): > 100 µM (inactive)
GI50 (HCT-116): 31.9 µM (inactive)
GI50 (Malme-3M): > 100 µM (inactive)
GI50 (NCI-H460): > 100 µM (inactive)
GI50 (SF-268): 69.2 µM (inactive)
GI50 (SF-295): 64.6 µM (inactive)
GI50 (SF-539): > 100 µM (inactive)
GI50 (SK-MEL-5): > 100 µM (inactive)
GI50 (SNB-78): 40.7 µM (inactive)
GI50 (SR): 29.5 µM (inactive)
GI50 (SW-620): > 100 µM (inactive)
GI50 (U-251): 47.1 µM (inactive)
GI50 (UACC-257): > 100 µM (inactive)

Cc1c(C)c([N+](=O)[O-])c2c(c1N)C(=O)c1ccccc1C2=O
GI50 (A549): > 100 µM (inactive)
GI50 (ACHN): > 100 µM (inactive)
GI50 (EKVX): > 100 µM (inactive)
GI50 (HCT-116): > 100 µM (inactive)
GI50 (Malme-3M): > 100 µM (inactive)
GI50 (SF-268): > 100 µM (inactive)
GI50 (SF-295): > 100 µM (inactive)
GI50 (SF-539): > 100 µM (inactive)
GI50 (SK-MEL-5): > 100 µM (inactive)
GI50 (SNB-78): > 100 µM (inactive)
GI50 (SR): > 100 µM (inactive)
GI50 (SW-620): > 100 µM (inactive)
GI50 (U-251): > 100 µM (inactive)
GI50 (UACC-257): > 100 µM (inactive)

CC(=O)O[C@]12CCCC1C1(O)C(O)CCCC12 (stereo partly drawn)
GI50 (A549): > 100 µM (inactive)
GI50 (ACHN): > 100 µM (inactive)
GI50 (EKVX): > 100 µM (inactive)
GI50 (HCT-116): > 100 µM (inactive)
GI50 (Malme-3M): > 100 µM (inactive)
GI50 (NCI-H460): > 100 µM (inactive)
GI50 (SF-268): > 100 µM (inactive)
GI50 (SF-295): > 100 µM (inactive)
GI50 (SK-MEL-5): > 100 µM (inactive)
GI50 (SNB-78): > 100 µM (inactive)
GI50 (SR): > 100 µM (inactive)
GI50 (SW-620): > 100 µM (inactive)
GI50 (U-251): > 100 µM (inactive)
GI50 (UACC-257): > 100 µM (inactive)

O=C1C2c3[nH]c4ccccc4c3C3CCCCC3C2C(=O)N1c1ccccc1 (stereo not drawn)
GI50 (A549): > 100 µM (inactive)
GI50 (ACHN): 99.3 µM (inactive)
GI50 (EKVX): > 100 µM (inactive)
GI50 (Malme-3M): > 100 µM (inactive)
GI50 (NCI-H460): > 100 µM (inactive)
GI50 (SF-268): 72.9 µM (inactive)
GI50 (SF-295): 48.9 µM (inactive)
GI50 (SF-539): 34 µM (inactive)
GI50 (SK-MEL-5): > 100 µM (inactive)
GI50 (SNB-78): 38.3 µM (inactive)
GI50 (SR): > 100 µM (inactive)
GI50 (SW-620): > 100 µM (inactive)
GI50 (U-251): > 100 µM (inactive)

CCOC(=O)C12CCC(c3c(C)cccc3C)(O1)C(C(=O)OC)=C2C(=O)OC (stereo not drawn)
GI50 (A549): 3.62 µM (inactive)
GI50 (ACHN): > 8.49 µM (inactive)
GI50 (CAKI-1): > 5.6 µM (inactive)
GI50 (EKVX): > 7.18 µM (inactive)
GI50 (HCT-116): 2.14 µM (inactive)
GI50 (MCF7): 1.3 µM (inactive)
GI50 (MDA-N): 0.484 µM (active)
GI50 (Malme-3M): 1.05 µM (active)
GI50 (NCI-H460): 2.23 µM (inactive)
GI50 (NCI/ADR-RES): > 9.25 µM (inactive)
GI50 (SF-268): > 6.89 µM (inactive)
GI50 (SF-295): 5.45 µM (inactive)
GI50 (SF-539): 2.11 µM (inactive)
GI50 (SK-MEL-5): 0.668 µM (active)
GI50 (SR): 0.646 µM (active)
GI50 (SW-620): 2.07 µM (inactive)
GI50 (T47D): 6.35 µM (inactive)
GI50 (U-251): 3.76 µM (inactive)
GI50 (UACC-257): 2.58 µM (inactive)

Cc1nc(-c2cccnc2)sc1C(=O)/C=C/c1ccc(Cl)cc1Cl
GI50 (A549): > 100 µM (inactive)
GI50 (ACHN): > 100 µM (inactive)
GI50 (CAKI-1): > 100 µM (inactive)
GI50 (EKVX): > 100 µM (inactive)
GI50 (Malme-3M): > 100 µM (inactive)
GI50 (NCI-H460): > 100 µM (inactive)
GI50 (SF-268): > 100 µM (inactive)
GI50 (SF-295): > 100 µM (inactive)
GI50 (SF-539): > 100 µM (inactive)
GI50 (SK-MEL-5): > 100 µM (inactive)
GI50 (SNB-78): > 100 µM (inactive)
GI50 (SW-620): 71.9 µM (inactive)
GI50 (U-251): > 100 µM (inactive)
GI50 (UACC-257): > 100 µM (inactive)

COC1=C2C[C@H](O)C(C)C[C@@]2(OC)OC1=O (stereo partly drawn)
GI50 (A549): > 100 µM (inactive)
GI50 (CAKI-1): > 100 µM (inactive)
GI50 (HCT-116): > 100 µM (inactive)
GI50 (Malme-3M): > 100 µM (inactive)
GI50 (NCI-H460): > 100 µM (inactive)
GI50 (SF-268): > 100 µM (inactive)
GI50 (SF-295): > 100 µM (inactive)
GI50 (SF-539): > 100 µM (inactive)
GI50 (SK-MEL-5): > 100 µM (inactive)
GI50 (SNB-78): > 100 µM (inactive)
GI50 (SW-620): > 100 µM (inactive)
GI50 (U-251): > 100 µM (inactive)
GI50 (UACC-257): > 100 µM (inactive)

O=c1ncccn1C1OC(CO)C(O)C1O (stereo not drawn)
GI50 (A549): > 100 µM (inactive)
GI50 (ACHN): > 100 µM (inactive)
GI50 (CAKI-1): > 100 µM (inactive)
GI50 (EKVX): > 100 µM (inactive)
GI50 (HCT-116): > 100 µM (inactive)
GI50 (Malme-3M): > 100 µM (inactive)
GI50 (NCI-H460): > 100 µM (inactive)
GI50 (SF-268): > 100 µM (inactive)
GI50 (SNB-78): > 100 µM (inactive)
GI50 (SW-620): > 100 µM (inactive)
GI50 (U-251): > 100 µM (inactive)
GI50 (UACC-257): > 10 µM (inactive)
